Experiments:
[1] = target: Beta-2 adrenergic receptor (Homo sapiens) (UniProt P07550); details: Compound concentration 10.0 uM
[2] = target: 5-hydroxytryptamine receptor 1B (Homo sapiens) (UniProt P28222); details: Compound concentration 10.0 uM
[3] = target: Rhodopsin kinase GRK7 (Homo sapiens) (UniProt Q8WTQ7); details: Compound concentration 1000.0 nM
[4] = target: Serine/threonine-protein kinase 17B (Homo sapiens) (UniProt O94768); details: Compound concentration 1000.0 nM
[5] = test system: Mast/stem cell growth factor receptor Kit (Homo sapiens), P10721 [D816H]; details: Compound concentration 1000.0 nM
[6] = target: Dual specificity protein kinase CLK2 (Homo sapiens) (UniProt P49760); details: Compound concentration 1000.0 nM
[7] = target: BMP-2-inducible protein kinase (Homo sapiens) (UniProt Q9NSY1); details: Compound concentration 1000.0 nM
[8] = test system: Phosphatidylinositol 4,5-bisphosphate 3-kinase catalytic subunit alpha isoform (Homo sapiens), P42336 [C420R]; details: Compound concentration 1000.0 nM
[9] = target: Serine/threonine-protein kinase PAK 4 (Homo sapiens) (UniProt O96013); details: Compound concentration 1000.0 nM
[10] = target: Tyrosine-protein kinase CSK (Homo sapiens) (UniProt P41240); details: Compound concentration 1000.0 nM
[11] = target: T1, 5-hydroxytryptamine receptor 3A (Homo sapiens) (UniProt P46098); details: Compound concentration 10.0 uM
T1 sequence (whole entry): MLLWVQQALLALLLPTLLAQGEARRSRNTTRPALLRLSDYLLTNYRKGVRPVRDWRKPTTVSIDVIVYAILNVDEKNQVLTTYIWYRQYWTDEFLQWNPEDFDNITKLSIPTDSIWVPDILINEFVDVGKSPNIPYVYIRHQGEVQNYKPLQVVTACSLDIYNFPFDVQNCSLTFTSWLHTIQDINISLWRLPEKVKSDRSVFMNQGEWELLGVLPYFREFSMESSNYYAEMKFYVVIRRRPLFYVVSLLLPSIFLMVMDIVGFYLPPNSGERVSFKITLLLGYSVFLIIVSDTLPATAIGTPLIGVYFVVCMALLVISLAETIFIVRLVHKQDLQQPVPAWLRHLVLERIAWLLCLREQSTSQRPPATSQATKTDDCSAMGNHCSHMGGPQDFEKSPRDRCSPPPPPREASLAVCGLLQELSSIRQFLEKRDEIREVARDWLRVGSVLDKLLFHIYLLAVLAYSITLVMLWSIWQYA

[12] = test system: Receptor-type tyrosine-protein kinase FLT3 (Homo sapiens), P36888 [UNDEFINED MUTATION]; details: Compound concentration 1000.0 nM
[13] = target: Alpha-1B adrenergic receptor (Homo sapiens) (UniProt P35368); details: Compound concentration 10.0 uM
[14] = target: Ephrin type-A receptor 5 (Homo sapiens) (UniProt P54756); details: Compound concentration 1000.0 nM
[15] = target: Calcium/calmodulin-dependent protein kinase type II subunit beta (Homo sapiens) (UniProt Q13554); details: Compound concentration 1000.0 nM
[16] = target: Calcium/calmodulin-dependent protein kinase type 1 (Homo sapiens) (UniProt Q14012); details: Compound concentration 1000.0 nM
[17] = target: Mitogen-activated protein kinase kinase kinase 11 (Homo sapiens) (UniProt Q16584); details: Compound concentration 1000.0 nM
[18] = target: Dual specificity tyrosine-phosphorylation-regulated kinase 1A (Homo sapiens) (UniProt Q13627); details: Compound concentration 1000.0 nM
[19] = target: Cyclin-dependent kinase 13 (Homo sapiens) (UniProt Q14004); details: Compound concentration 1000.0 nM
[20] = target: Serine/threonine-protein kinase MARK1 (Homo sapiens) (UniProt Q9P0L2); details: Compound concentration 1000.0 nM
[21] = target: 5-hydroxytryptamine receptor 7 (Homo sapiens) (UniProt P34969); details: Compound concentration 10.0 uM
[22] = target: Alpha-2C adrenergic receptor (Homo sapiens) (UniProt P18825); details: Compound concentration 10.0 uM
[23] = target: 5-hydroxytryptamine receptor 1A (Homo sapiens) (UniProt P08908); details: Compound concentration 10.0 uM
[24] = target: Mitogen-activated protein kinase 15 (Homo sapiens) (UniProt Q8TD08); details: Compound concentration 1000.0 nM
[25] = test system: Tyrosine-protein kinase ABL1 (Homo sapiens), P00519 [E255K]; details: Compound concentration 1000.0 nM
[26] = target: 5-hydroxytryptamine receptor 1E (Homo sapiens) (UniProt P28566); details: Compound concentration 10.0 uM
[27] = target: Casein kinase I isoform epsilon (Homo sapiens) (UniProt P49674); details: Compound concentration 1000.0 nM
[28] = test system: Epidermal growth factor receptor (Homo sapiens), P00533 [UNDEFINED MUTATION]; details: Compound concentration 1000.0 nM
[29] = target: Mitogen-activated protein kinase kinase kinase 15 (Homo sapiens) (UniProt Q6ZN16); details: Compound concentration 1000.0 nM
[30] = test system: Receptor-type tyrosine-protein kinase FLT3 (Homo sapiens), P36888 [R834Q]; details: Compound concentration 1000.0 nM
[31] = target: Myosin light chain kinase (Homo sapiens) (UniProt Q32MK0); details: Compound concentration 1000.0 nM
[32] = target: Dual specificity protein kinase CLK1 (Homo sapiens) (UniProt P49759); details: Compound concentration 1000.0 nM
[33] = target: Serine/threonine-protein kinase Sgk2 (Homo sapiens) (UniProt Q9HBY8); details: Compound concentration 1000.0 nM
[34] = target: Serine/threonine-protein kinase 32B (Homo sapiens) (UniProt Q9NY57); details: Compound concentration 1000.0 nM
[35] = test system: ALK tyrosine kinase receptor (Homo sapiens), Q9UM73 [C1156Y]; details: Compound concentration 1000.0 nM
[36] = target: Serine/threonine-protein kinase TAO3 (Homo sapiens) (UniProt Q9H2K8); details: Compound concentration 1000.0 nM
[37] = target: Mitogen-activated protein kinase kinase kinase 6 (Homo sapiens) (UniProt O95382); details: Compound concentration 1000.0 nM
[38] = target: Macrophage colony-stimulating factor 1 receptor (Homo sapiens) (UniProt P07333); details: Compound concentration 1000.0 nM
Sequence of Macrophage colony-stimulating factor 1 receptor (Homo sapiens) (P07333 whole entry): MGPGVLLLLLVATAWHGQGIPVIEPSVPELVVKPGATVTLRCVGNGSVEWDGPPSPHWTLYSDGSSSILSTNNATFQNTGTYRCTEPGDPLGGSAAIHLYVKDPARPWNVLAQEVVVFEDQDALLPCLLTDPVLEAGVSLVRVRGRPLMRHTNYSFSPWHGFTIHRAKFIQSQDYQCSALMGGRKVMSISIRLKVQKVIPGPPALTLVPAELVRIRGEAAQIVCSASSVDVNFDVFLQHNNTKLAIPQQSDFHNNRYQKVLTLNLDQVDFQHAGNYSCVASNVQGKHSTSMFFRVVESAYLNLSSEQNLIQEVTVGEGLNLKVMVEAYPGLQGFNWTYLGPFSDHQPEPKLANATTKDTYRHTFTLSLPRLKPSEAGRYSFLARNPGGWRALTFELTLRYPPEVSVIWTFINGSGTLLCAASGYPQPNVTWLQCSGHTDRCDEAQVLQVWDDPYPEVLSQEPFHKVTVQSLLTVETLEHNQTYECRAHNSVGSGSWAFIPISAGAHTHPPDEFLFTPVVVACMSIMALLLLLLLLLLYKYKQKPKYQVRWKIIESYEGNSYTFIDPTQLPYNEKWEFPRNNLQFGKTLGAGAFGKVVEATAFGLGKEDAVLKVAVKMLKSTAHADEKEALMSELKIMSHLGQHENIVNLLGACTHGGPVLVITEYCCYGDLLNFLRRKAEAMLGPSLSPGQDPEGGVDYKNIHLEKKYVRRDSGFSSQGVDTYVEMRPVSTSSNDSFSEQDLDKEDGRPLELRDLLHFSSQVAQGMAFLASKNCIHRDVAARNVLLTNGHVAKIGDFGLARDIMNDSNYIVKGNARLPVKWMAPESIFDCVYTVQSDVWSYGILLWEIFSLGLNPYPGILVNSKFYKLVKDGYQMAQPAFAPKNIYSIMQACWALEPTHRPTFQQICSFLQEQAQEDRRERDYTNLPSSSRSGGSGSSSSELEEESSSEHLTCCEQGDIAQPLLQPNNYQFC

Sequence of Mitogen-activated protein kinase kinase kinase 11 (Homo sapiens) (Q16584 whole entry, looked up): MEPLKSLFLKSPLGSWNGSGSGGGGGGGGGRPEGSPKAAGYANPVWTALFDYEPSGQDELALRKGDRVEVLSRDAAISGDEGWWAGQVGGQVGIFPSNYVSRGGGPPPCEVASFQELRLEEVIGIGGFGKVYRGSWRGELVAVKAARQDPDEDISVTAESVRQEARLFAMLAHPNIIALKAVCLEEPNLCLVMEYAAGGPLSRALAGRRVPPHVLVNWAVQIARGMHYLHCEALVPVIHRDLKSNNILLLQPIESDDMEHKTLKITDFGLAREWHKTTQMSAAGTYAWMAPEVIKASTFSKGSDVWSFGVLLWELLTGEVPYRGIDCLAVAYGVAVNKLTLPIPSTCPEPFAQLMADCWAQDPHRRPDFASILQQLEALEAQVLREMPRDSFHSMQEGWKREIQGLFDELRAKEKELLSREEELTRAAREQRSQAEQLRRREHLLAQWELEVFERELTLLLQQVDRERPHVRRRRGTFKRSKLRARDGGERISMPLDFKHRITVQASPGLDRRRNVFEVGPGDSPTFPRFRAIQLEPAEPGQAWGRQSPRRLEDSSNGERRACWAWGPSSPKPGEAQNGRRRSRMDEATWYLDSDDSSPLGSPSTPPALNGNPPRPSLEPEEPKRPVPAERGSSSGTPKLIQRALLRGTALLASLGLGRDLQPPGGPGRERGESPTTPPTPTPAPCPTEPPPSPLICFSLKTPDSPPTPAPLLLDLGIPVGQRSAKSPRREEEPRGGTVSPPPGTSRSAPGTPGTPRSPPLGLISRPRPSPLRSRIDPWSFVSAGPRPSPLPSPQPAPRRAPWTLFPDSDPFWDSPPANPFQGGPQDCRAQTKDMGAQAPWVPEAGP
Sequence of Mast/stem cell growth factor receptor Kit (Homo sapiens), P10721 [D816H] (P10721 whole entry D816H): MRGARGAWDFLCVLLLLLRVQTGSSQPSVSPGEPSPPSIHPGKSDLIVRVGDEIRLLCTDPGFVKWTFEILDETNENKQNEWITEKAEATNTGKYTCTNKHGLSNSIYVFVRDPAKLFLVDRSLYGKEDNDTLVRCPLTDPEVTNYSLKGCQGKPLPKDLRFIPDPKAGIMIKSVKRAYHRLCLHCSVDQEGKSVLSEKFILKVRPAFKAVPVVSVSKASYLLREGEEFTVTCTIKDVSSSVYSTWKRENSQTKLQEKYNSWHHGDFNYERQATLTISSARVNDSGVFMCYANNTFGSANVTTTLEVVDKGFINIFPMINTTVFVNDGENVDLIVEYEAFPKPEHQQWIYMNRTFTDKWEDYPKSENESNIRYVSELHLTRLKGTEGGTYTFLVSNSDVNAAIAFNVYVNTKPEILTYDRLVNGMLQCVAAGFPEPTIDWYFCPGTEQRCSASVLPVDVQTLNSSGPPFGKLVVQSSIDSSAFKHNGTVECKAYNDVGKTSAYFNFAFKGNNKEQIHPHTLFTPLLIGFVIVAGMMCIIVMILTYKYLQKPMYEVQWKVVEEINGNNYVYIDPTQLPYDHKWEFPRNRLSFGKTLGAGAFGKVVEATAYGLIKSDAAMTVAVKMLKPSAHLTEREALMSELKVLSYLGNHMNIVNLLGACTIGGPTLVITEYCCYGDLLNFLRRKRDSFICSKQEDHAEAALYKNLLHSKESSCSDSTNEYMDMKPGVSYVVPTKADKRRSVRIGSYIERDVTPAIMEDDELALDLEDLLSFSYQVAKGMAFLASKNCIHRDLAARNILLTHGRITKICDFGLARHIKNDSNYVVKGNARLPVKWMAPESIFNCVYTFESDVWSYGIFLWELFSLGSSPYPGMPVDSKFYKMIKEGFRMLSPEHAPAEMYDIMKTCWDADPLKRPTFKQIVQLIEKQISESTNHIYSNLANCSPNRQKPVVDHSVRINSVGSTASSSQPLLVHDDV
Sequence of Mitogen-activated protein kinase kinase kinase 15 (Homo sapiens) (Q6ZN16 whole entry): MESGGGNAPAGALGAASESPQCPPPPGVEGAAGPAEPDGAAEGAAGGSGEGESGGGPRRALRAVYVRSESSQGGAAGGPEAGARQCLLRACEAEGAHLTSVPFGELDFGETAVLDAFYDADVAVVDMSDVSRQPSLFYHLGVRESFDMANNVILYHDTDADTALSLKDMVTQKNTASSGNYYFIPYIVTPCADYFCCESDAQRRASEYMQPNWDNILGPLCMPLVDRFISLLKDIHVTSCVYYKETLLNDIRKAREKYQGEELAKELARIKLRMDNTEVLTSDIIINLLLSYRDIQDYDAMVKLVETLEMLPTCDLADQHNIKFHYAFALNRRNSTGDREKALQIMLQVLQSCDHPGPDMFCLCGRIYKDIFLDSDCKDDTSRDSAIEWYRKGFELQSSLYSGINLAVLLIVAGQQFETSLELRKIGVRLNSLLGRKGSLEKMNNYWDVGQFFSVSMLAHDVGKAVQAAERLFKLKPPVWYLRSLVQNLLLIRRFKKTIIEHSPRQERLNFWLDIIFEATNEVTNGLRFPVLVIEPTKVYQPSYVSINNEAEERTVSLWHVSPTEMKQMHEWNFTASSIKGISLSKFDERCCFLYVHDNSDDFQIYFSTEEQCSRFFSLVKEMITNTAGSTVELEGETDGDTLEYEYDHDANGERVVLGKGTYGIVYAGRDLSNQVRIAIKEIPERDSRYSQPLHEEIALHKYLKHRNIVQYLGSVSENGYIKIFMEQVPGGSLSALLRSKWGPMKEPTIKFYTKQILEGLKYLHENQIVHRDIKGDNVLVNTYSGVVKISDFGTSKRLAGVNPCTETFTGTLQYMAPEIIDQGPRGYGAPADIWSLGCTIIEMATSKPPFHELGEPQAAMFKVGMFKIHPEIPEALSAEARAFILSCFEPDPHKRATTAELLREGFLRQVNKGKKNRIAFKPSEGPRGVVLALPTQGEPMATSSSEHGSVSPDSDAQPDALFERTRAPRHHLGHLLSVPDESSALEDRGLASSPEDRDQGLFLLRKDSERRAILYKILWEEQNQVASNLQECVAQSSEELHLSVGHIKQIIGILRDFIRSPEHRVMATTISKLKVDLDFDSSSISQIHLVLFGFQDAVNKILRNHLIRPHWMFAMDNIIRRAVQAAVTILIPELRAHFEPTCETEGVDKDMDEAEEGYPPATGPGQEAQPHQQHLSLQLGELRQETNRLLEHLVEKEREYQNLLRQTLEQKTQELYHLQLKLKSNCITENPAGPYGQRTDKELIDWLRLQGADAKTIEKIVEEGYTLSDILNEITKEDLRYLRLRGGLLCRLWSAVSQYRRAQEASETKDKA
Sequence of Serine/threonine-protein kinase 32B (Homo sapiens) (Q9NY57 whole entry): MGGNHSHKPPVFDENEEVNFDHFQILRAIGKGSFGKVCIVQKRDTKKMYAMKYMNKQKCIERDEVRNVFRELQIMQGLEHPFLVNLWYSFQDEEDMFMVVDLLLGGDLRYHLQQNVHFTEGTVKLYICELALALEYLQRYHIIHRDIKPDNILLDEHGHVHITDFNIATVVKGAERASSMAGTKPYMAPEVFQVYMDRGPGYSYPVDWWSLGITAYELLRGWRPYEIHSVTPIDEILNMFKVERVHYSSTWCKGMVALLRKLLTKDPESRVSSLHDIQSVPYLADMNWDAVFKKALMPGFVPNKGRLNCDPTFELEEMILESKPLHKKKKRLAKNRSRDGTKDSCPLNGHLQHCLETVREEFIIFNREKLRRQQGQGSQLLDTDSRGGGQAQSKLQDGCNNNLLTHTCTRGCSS
Sequence of Mitogen-activated protein kinase 15 (Homo sapiens) (Q8TD08 whole entry): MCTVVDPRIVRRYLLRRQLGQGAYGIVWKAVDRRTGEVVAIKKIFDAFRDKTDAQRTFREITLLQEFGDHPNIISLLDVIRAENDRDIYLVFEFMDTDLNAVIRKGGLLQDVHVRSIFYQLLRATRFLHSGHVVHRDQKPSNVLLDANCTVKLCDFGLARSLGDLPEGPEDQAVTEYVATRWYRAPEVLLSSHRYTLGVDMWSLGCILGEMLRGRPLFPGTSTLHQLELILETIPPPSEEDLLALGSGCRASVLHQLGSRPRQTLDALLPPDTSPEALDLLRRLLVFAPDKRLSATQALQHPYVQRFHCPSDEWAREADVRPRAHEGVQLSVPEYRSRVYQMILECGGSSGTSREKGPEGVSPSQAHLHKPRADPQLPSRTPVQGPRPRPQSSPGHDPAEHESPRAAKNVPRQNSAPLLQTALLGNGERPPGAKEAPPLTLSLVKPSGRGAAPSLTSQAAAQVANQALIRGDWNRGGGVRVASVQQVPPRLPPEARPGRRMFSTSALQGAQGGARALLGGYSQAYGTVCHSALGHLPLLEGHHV

Question: What does the source list for `CCC(=N\O)/C(C)=C/c1ccc(F)cc1` [A-079]?
Answer: inhibition [1]: 6.61%; inhibition [2]: 7.88%; residual activity [3]: 85%; residual activity [4]: 74%; residual activity [5]: 65%; residual activity [6]: 78%; residual activity [7]: 80%; residual activity [8]: 79%; residual activity [9]: 100%; residual activity [10]: 100%; inhibition [11]: -4.62%; residual activity [12]: 67%; inhibition [13]: 3.8%; residual activity [14]: 64%; residual activity [15]: 97%; residual activity [16]: 100%; residual activity [17]: 88%; residual activity [18]: 91%; residual activity [19]: 95%; residual activity [20]: 100%; inhibition [21]: 8.18%; inhibition [22]: 8.29%; inhibition [23]: 6.81%; residual activity [24]: 95%; residual activity [25]: 52%; inhibition [26]: 6.66%; residual activity [27]: 99%; residual activity [28]: 67%; residual activity [29]: 100%; residual activity [30]: 80%; residual activity [31]: 86%; residual activity [32]: 79%; residual activity [33]: 78%; residual activity [34]: 100%; residual activity [35]: 77%; residual activity [36]: 86%; residual activity [37]: 63%; residual activity [38]: 91%

Question: Which results are given for `CCC(=N\O)/C(C)=C/c1ccc(F)c(C)c1` [A-226]?
Answer: inhibition [1]: -1.29%; inhibition [2]: -1.04%; residual activity [3]: 100%; residual activity [4]: 100%; residual activity [5]: 100%; residual activity [6]: 88%; residual activity [7]: 100%; residual activity [8]: 100%; residual activity [9]: 76%; residual activity [10]: 96%; inhibition [11]: 0.44%; residual activity [12]: 100%; inhibition [13]: 0.56%; residual activity [14]: 79%; residual activity [15]: 100%; residual activity [16]: 86%; residual activity [17]: 79%; residual activity [18]: 100%; residual activity [19]: 100%; residual activity [20]: 99%; inhibition [21]: -0.42%; inhibition [22]: 15.7%; inhibition [23]: 1.12%; residual activity [24]: 100%; residual activity [25]: 100%; inhibition [26]: 4.47%; residual activity [27]: 92%; residual activity [28]: 65%; residual activity [29]: 69%; residual activity [30]: 100%; residual activity [31]: 100%; residual activity [32]: 100%; residual activity [33]: 100%; residual activity [34]: 99%; residual activity [35]: 100%; residual activity [36]: 46%; residual activity [37]: 100%; residual activity [38]: 90%

From ChEMBL document CHEMBL4507256 (2021)
